Reference: ChEMBL document CHEMBL1201862, “PubChem BioAssay data set” (2004)
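Exposure lasted 48 hours, with cells grown in 96-well plates and compounds tested at five concentrations. GI50 marks 50% less growth.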 Calls of active or inactive are those of the source. Cut-off read from the data, not from the text of the source: active = GI50 up to about 1.1 µM and inactive = higher.

Tests used:
Assay in all cases: NCI tumour cell line growth inhibition, 48 h
786-0 = system: 786-0
HCC 2998 = system: HCC 2998
HOP-62 = system: HOP-62
Hs-578T = system: Hs-578T
IGROV-1 = system: IGROV-1
K562 = system: K562
LOX IMVI = system: LOX IMVI
MCF7 = system: MCF7
MDA-MB-435 = system: MDA-MB-435
MDA-N = system: MDA-N
NCI-H226 = system: NCI-H226
OVCAR-5 = system: OVCAR-5
SF-268 = system: SF-268
SF-295 = system: SF-295
SF-539 = system: SF-539
SK-MEL-5 = system: SK-MEL-5
T47D = system: T47D
U-251 = system: U-251
UACC-62 = system: UACC-62
ACHN = system: ACHN

Row | Structure (SMILES) | GI50 (786-0) | GI50 (HCC 2998) | GI50 (HOP-62) | GI50 (Hs-578T) | GI50 (IGROV-1) | GI50 (K562) | GI50 (LOX IMVI) | GI50 (MCF7) | GI50 (MDA-MB-435) | GI50 (MDA-N) | GI50 (NCI-H226) | GI50 (OVCAR-5) | GI50 (SF-268) | GI50 (SF-295) | GI50 (SF-539) | GI50 (SK-MEL-5) | GI50 (T47D) | GI50 (U-251) | GI50 (UACC-62) | GI50 (ACHN)
1 | COC1C(C)OC(OC2CC(C)(O)Cc3cc4c(c(O)c32)C(=O)c2c(O)cc3c(c2C4=O)OC2OC3(C)C(O)C(N(C)C)C2O)C(OC)C1(C)OC (stereo not given) | 0.0861 µM (active) | 0.0342 µM (active) | 0.0527 µM (active) | 5.79e-05 µM (active) | 0.0197 µM (active) | 0.00438 µM (active) | 0.00316 µM (active) | 0.0331 µM (active) | 0.00102 µM (active) | 0.00053 µM (active) | 0.0508 µM (active) | 0.0628 µM (active) | 0.00484 µM (active) | 0.0047 µM (active) | 0.00348 µM (active) | 0.0237 µM (active) | 2.9e-05 µM (active) | 0.00285 µM (active) | 0.016 µM (active) | 
2 | c1ccc(CC2COC(c3cccs3)=N2)cc1 (stereo not given) | > 100 µM (inactive) | > 73.8 µM (inactive) | > 100 µM (inactive) | 49.5 µM (inactive) | > 100 µM (inactive) | 46.6 µM (inactive) | > 74.1 µM (inactive) | 17.9 µM (inactive) | > 100 µM (inactive) | > 100 µM (inactive) | 67.9 µM (inactive) | > 100 µM (inactive) | > 91 µM (inactive) | > 86.3 µM (inactive) | > 45 µM (inactive) | 57.7 µM (inactive) | 26 µM (inactive) | 53 µM (inactive) | > 100 µM (inactive) | 78.5 µM (inactive)
3 | O=C1C(NCCc2ccc(O)c(O)c2)=CC(=O)c2ncccc21 | 15.3 µM (inactive) | 13 µM (inactive) | 19.2 µM (inactive) | 5.82 µM (inactive) | 9.53 µM (inactive) | 2.42 µM (inactive) | 4.45 µM (inactive) | 4.02 µM (inactive) | 1.7 µM (inactive) | 2.03 µM (inactive) | 13.7 µM (inactive) | 19.7 µM (inactive) | 13.3 µM (inactive) | 12.6 µM (inactive) | 14.2 µM (inactive) | 2.93 µM (inactive) | 22.7 µM (inactive) | 4.3 µM (inactive) | 5.37 µM (inactive) | 11.1 µM (inactive)
4 | O=C1c2cccnc2S(=O)(=O)N1c1ccc([N+](=O)[O-])cc1 | > 100 µM (inactive) | > 100 µM (inactive) | > 100 µM (inactive) | 64 µM (inactive) | > 100 µM (inactive) |  | > 100 µM (inactive) | > 100 µM (inactive) | > 100 µM (inactive) | > 100 µM (inactive) | > 100 µM (inactive) | > 100 µM (inactive) | > 100 µM (inactive) | > 100 µM (inactive) | > 100 µM (inactive) | > 100 µM (inactive) | > 100 µM (inactive) | > 100 µM (inactive) | > 100 µM (inactive) | > 100 µM (inactive)
5 | COc1cc(CN2CCCCC2)cc2cc(C(=O)O)c(=O)oc12 | > 100 µM (inactive) | > 100 µM (inactive) | > 100 µM (inactive) | > 100 µM (inactive) | > 100 µM (inactive) | > 100 µM (inactive) | > 100 µM (inactive) | > 100 µM (inactive) | > 100 µM (inactive) | > 100 µM (inactive) | > 100 µM (inactive) | > 100 µM (inactive) | > 100 µM (inactive) | > 100 µM (inactive) | > 100 µM (inactive) | > 100 µM (inactive) | > 70.1 µM (inactive) | > 100 µM (inactive) | > 100 µM (inactive) | > 100 µM (inactive)
6 | O=C(NCCSSCCNC(=O)/C(Cc1ccc(O)c(Br)c1)=N/O)/C(Cc1ccc(O)c(Br)c1)=N/O [PSAMMAPLIN A] | 2.07 µM (inactive) | 2.17 µM (inactive) | 0.885 µM (active) | 1.77 µM (inactive) | 1.17 µM (inactive) | 1.81 µM (inactive) | 1.3 µM (inactive) | 2.02 µM (inactive) | 1.51 µM (inactive) | 1.6 µM (inactive) | 9.82 µM (inactive) | 2.21 µM (inactive) | 1.62 µM (inactive) | 1.34 µM (inactive) | 1.72 µM (inactive) | 0.927 µM (active) | 3.71 µM (inactive) | 1.1 µM (active) | 1.72 µM (inactive) | 1.62 µM (inactive)
7 | Cc1cc(N(CCC#N)CCC#N)ccc1C(=N/NC(=O)c1cc(Cl)ccc1O)/N=N/c1cccc(Cl)c1 | 11.5 µM (inactive) | 12 µM (inactive) | 13.2 µM (inactive) | 39.1 µM (inactive) | 1.4 µM (inactive) | 15.7 µM (inactive) | 11.4 µM (inactive) | 8.79 µM (inactive) | 27.3 µM (inactive) | 29.5 µM (inactive) | 18.8 µM (inactive) | 41.6 µM (inactive) | 11.8 µM (inactive) | 22 µM (inactive) | 30.1 µM (inactive) | 13.7 µM (inactive) | 15.4 µM (inactive) | 25.2 µM (inactive) | 10.6 µM (inactive) | 13 µM (inactive)
8 | COc1ccc(S(=O)(=O)Nc2ccc(-c3csc(N4C(=O)/C(=C/c5ccccc5[N+](=O)[O-])N=C4c4ccccc4)n3)cc2)cc1Cl | > 100 µM (inactive) | 22.9 µM (inactive) | > 100 µM (inactive) | 40.4 µM (inactive) | 16.1 µM (inactive) | 39.5 µM (inactive) | 34.8 µM (inactive) | 66.8 µM (inactive) | > 100 µM (inactive) | 60 µM (inactive) | > 100 µM (inactive) | 73.6 µM (inactive) | 38.8 µM (inactive) | 47 µM (inactive) | 80.2 µM (inactive) | 43.2 µM (inactive) | 24.5 µM (inactive) | 37.2 µM (inactive) | 34.3 µM (inactive) | 50.5 µM (inactive)
9 | O=C1CC(Cl)c2c(Cl)sc(Cl)c21 (stereo not given) | 1.47 µM (inactive) | 2.36 µM (inactive) | 6 µM (inactive) | 7.38 µM (inactive) | 1.99 µM (inactive) | 2.85 µM (inactive) | 1.66 µM (inactive) | 0.794 µM (active) | 2.36 µM (inactive) | 2.32 µM (inactive) | 13.4 µM (inactive) | 16.2 µM (inactive) | 1.79 µM (inactive) | 15.4 µM (inactive) | 2.63 µM (inactive) | 13.2 µM (inactive) | 2.92 µM (inactive) |  | 2.16 µM (inactive) | 1.95 µM (inactive)
10 | CN(C)CCSCCO | > 100 µM (inactive) | > 100 µM (inactive) | > 100 µM (inactive) | > 100 µM (inactive) | > 100 µM (inactive) | > 100 µM (inactive) | > 100 µM (inactive) | > 100 µM (inactive) | > 100 µM (inactive) | > 100 µM (inactive) | > 100 µM (inactive) | > 100 µM (inactive) | > 100 µM (inactive) | > 100 µM (inactive) | > 100 µM (inactive) | > 100 µM (inactive) | > 100 µM (inactive) | > 100 µM (inactive) | > 100 µM (inactive) | > 100 µM (inactive)
11 | O=NN(CCCl)C(=O)NC1CCC(=O)NC1=O (stereo not given) | 61.7 µM (inactive) | 713 µM (inactive) | 144 µM (inactive) | 348 µM (inactive) | 365 µM (inactive) | 153 µM (inactive) | 48.2 µM (inactive) | 330 µM (inactive) | 191 µM (inactive) | 224 µM (inactive) | 232 µM (inactive) | 804 µM (inactive) | 38.7 µM (inactive) | 30.3 µM (inactive) | 50.8 µM (inactive) | 121 µM (inactive) | 384 µM (inactive) | 52.8 µM (inactive) | 25.5 µM (inactive) | 428 µM (inactive)
12 | COc1ccc(C(c2ccccc2)N2C(=O)CCC2C(=O)O)cc1OC (stereo not given) | > 100 µM (inactive) | > 100 µM (inactive) | > 100 µM (inactive) | > 100 µM (inactive) | > 100 µM (inactive) | > 100 µM (inactive) | > 100 µM (inactive) | > 100 µM (inactive) | > 100 µM (inactive) | > 100 µM (inactive) | > 100 µM (inactive) | > 100 µM (inactive) | > 100 µM (inactive) | > 100 µM (inactive) | > 100 µM (inactive) | > 100 µM (inactive) | > 100 µM (inactive) | > 100 µM (inactive) | > 100 µM (inactive) | > 100 µM (inactive)
13 | CC(=O)CC1(C)OC(N)=C(C#N)C1(C#N)C#N (stereo not given) | > 100 µM (inactive) | > 100 µM (inactive) | 55.1 µM (inactive) | > 100 µM (inactive) | > 100 µM (inactive) |  | 81.1 µM (inactive) | > 100 µM (inactive) | > 100 µM (inactive) | > 100 µM (inactive) | > 100 µM (inactive) | > 100 µM (inactive) | > 100 µM (inactive) | > 100 µM (inactive) | 86.1 µM (inactive) | 42.1 µM (inactive) | > 100 µM (inactive) | > 100 µM (inactive) | > 100 µM (inactive) | > 100 µM (inactive)
14 | CC(C(=O)O)C1Nc2ccccc2NC1=O (stereo not given) | > 100 µM (inactive) | > 100 µM (inactive) |  | > 100 µM (inactive) | > 100 µM (inactive) | > 100 µM (inactive) | > 100 µM (inactive) | > 100 µM (inactive) | > 100 µM (inactive) | > 100 µM (inactive) | > 100 µM (inactive) | > 100 µM (inactive) | > 100 µM (inactive) | > 100 µM (inactive) | > 100 µM (inactive) | > 100 µM (inactive) | > 100 µM (inactive) | > 100 µM (inactive) | > 100 µM (inactive) | > 100 µM (inactive)
